# Measured values: patent US8759400B2, “Histone deacetylase inhibitors for enhancing activity of antifungal agents” (MethylGene Inc., priority 2005, dated 2014)
# Where “and” joins values, the source holds several entries; their conditions need not be identical. Equal values may be shown once. Marks after values point to notes of the source that are not given here.
# Legend:
# Fusarium sp. = test: Clinical isolates of other fungal species, checkerboard; assay type: cell-based
# Method: To determine the synergy between Compound 4 and azoles against other fungal species, a series of clinical isolates (Micheal Rinaldi, University of Texas Health Science Center) was tested by the checkerboard method as described in Example 1.
# HDAC [1] = test: HDAC inhibitory activity in fungal protoplasts (Fluor-de-Lys); assay type: cell-based, Candida glabrata; conditions: C. glabrata protoplasts
# Method: (§1) Protoplasts of C. albicans and C. glabrata are prepared by the […] method of Franzusoff et al.
# C. parapsilosis = test: Fungicidal activity (CFU counts); assay type: cell-based; conditions: voriconazole with Compound 4, data not shown
# HDAC [2] = test: HDAC inhibitory activity in fungal protoplasts (Fluor-de-Lys); assay type: cell-based, Candida albicans; conditions: C. albicans protoplasts
# Method: as §1
# A. niger = test: Clinical isolates, CLSI M38-A broth microdilution and checkerboard; assay type: cell-based
# Pseudallescheria boydii = test: Clinical isolates of other fungal species, checkerboard; assay type: cell-based
# Aspergillus spp. = test: Clinical isolates, checkerboard, summary over 16 isolates; assay type: cell-based
# Aspergillus fumigatus = test: Clinical isolates of other fungal species, checkerboard; assay type: cell-based
# C. tropicalis = test: Clinical isolates, CLSI M27-A2 broth microdilution and checkerboard; assay type: cell-based
# Paecilomyces lilacinus = test: Clinical isolates of other fungal species, checkerboard; assay type: cell-based
# C. krusei = test: Clinical isolates, CLSI M27-A2 broth microdilution and checkerboard; assay type: cell-based; conditions: for minimum Compound 4 concentration at which Compound 4 alone inhibited growth (number in brackets): C. krusei clinical isolates
# C. dubliniensis = test: as above; assay type: cell-based
# C. parapsilosis (22019) = test: MIC and checkerboard synergy with azoles; assay type: cell-based, Candida parapsilosis
# Method: (§2) For susceptibility studies, overnight cultures of both Candida species are diluted 1:100 in YEPD medium, grown for 4 h at 30° C., counted in a hemocytometer, then diluted to a concentration of 5×10^3 cells/ml. […] Synergy, determined by the checkerboard method, is defined as a decrease in MIC of antifungal agent that is more than additive of the MIC of the histone deacetylase inhibitor and the antifungal agent alone.
# C. krusei (14243) = test: MIC and checkerboard synergy with azoles; assay type: cell-based, Candida krusei
# Method: as §2
# Rhizopus arrhizus = test: Clinical isolates of other fungal species, checkerboard; assay type: cell-based
# A. fumigatus ATCC 1022 = test: MIC80 and checkerboard synergy, broth microdilution (NCCLS M38-A); assay type: cell-based, Aspergillus fumigatus
# C. albicans = test: Immunocompromised mouse model of systemic candidiasis; assay type: in vivo; conditions: compound 4 at 2-10 mg/kg i.p. daily with ketoconazole 20 mg/kg i.p. daily, 7 days; immunocompromised mice; FIG. 4
# Method: The standard method for the mouse candidiasis studies is as follows. Female CD-1 mice are immunocompromised by injecting 240 mg/kg cyclophosphamide on day -3 then 80 mg/kg cyclophosphamide on days 1 and 5. C. albicans is grown in Sabouraud agar, cells are resuspended in 0.9% saline and counted in a hemacytometer. […] Mice are treated with ketoconazole +/− test compound daily for seven days, starting one day after the infection. They are monitored daily for weight loss and death. Mice are sacrificed on day 8 and the kidneys are removed and homogenized and fungal load (CFU) per pair of kidneys determined.
# Coccidioides immitis = test: microbe, parasite or virus in culture; assay type: cell-based
# Mucor Sp. = test: Clinical isolates of other fungal species, checkerboard; assay type: cell-based
# C. glabrata = test: Post-antifungal effect (PAFE); assay type: cell-based
# Method: The post-antifungal effect (PAFE) is the time needed to achieve one log10 of cell growth after drug removal. One-two colonies are resuspended in 5 ml YPD. […] Cells are incubated at 30° C. overnight. In the morning, the optical density at 600 nm is read. Cells at A600 the closest but not surpassing 0.3 (early log-phase cells) are picked for further treatments as follows: […] Counts of CFU/ml are performed at time zero, before and after diluting the cells and at predetermined time points in order to determine the PAFE and the cidal potential of each drug combination (FIGS. 5-10).
# Candida spp. = test: Clinical isolates, checkerboard, summary over 45 isolates; assay type: cell-based; conditions: for isolates with synergy / isolates tested: 45 clinical isolates of Candida spp.
# HMEC = test: Mammalian cytotoxicity, MTT reduction
# [3] = Aspergillus spp. clinical isolates
# [4] = Paecilomyces lilacinus, *Synergy occurs at ½ MIC of Cpd 4
# [5] = Cpd 4 with fluconazole, C. dubliniensis clinical isolates
# [6] = Cpd 4 with voriconazole, C. dubliniensis clinical isolates
# [7] = Rhizopus arrhizus, *Synergy occurs at ½ MIC of Cpd 4
structure (smiles),measurement,setting,value
O=C(Cc1ccc(CCCCc2ccccc2)cc1)NO [Cpd 4],Synergy with Cpd 4 (strains showing synergy/total strains tested) Itraconazole,Fusarium sp.; Fusarium sp.,1/3
same,MIC,"Fusarium sp.; Fusarium sp. clinical isolates, read-out: Cpd 4 MIC",8 µg/mL
same,Synergy with Cpd 4 (strains showing synergy/total strains tested) Voriconazole,"Fusarium sp.; Fusarium sp., *Synergy occurs at ½ MIC of Cpd 4",3/3*
same,HDAC inhibition IC50,HDAC [1],>20 (20%) μg/ml
same,"HDAC inhibition, per cent in parentheses beside IC50 >20",HDAC [1]; concentration not given,>20 (20%)
same,increase in voriconazole fungicidal activity,C. parapsilosis,1.1-1.2 fold
same,HDAC inhibition IC50,HDAC [2],>20 µg/mL
same,ITR/Cpd 4 FIC,A. niger; Cpd 4 with itraconazole,0.5
same,VOR/Cpd 4 FIC,A. niger; Cpd 4 with voriconazole,0.5
same,minimum Compound 4 concentration at which Compound 4 alone inhibited growth (number in brackets),A. niger; ITR checkerboard,4.0 µg/mL
same,minimum Compound 4 concentration at which Compound 4 alone inhibited growth (number in brackets),A. niger; VOR checkerboard,2.0 µg/mL
same,Synergy with Cpd 4 (strains showing synergy/total strains tested) Itraconazole,Pseudallescheria boydii; Pseudallescheria boydii,0/3
same,Synergy with Cpd 4 (strains showing synergy/total strains tested) Voriconazole,Pseudallescheria boydii; Pseudallescheria boydii,0/3
same,MIC,"Pseudallescheria boydii; Scedosporium boydii, Pseudallescheria boydii clinical isolates, read-out: Cpd 4 MIC",2 µg/mL
same,Compound 4 concentrations required for 4-fold reductions in azole MIC,Aspergillus spp.; [3],1 to 8 µg/mL
same,in vitro antagonism of Compound 4-azole combination,Aspergillus spp.; [3],none of the isolates tested
same,number of isolates with additivity,"Aspergillus spp.; Compound 4 with VOR and ITR, of 16 Aspergillus spp. isolates",4
same,number of isolates with synergy,"Aspergillus spp.; Compound 4 with both VOR and ITR, of 16 Aspergillus spp. isolates",11
same,MIC,"Aspergillus fumigatus; Aspergillus fumigatus clinical isolates, read-out: Cpd 4 MIC",4 to 8 µg/mL
same,Synergy with Cpd 4 (strains showing synergy/total strains tested) Itraconazole,"Aspergillus fumigatus; Aspergillus fumigatus, *Synergy occurs at ½ MIC of Cpd 4",2/3*
same,Synergy with Cpd 4 (strains showing synergy/total strains tested) Voriconazole,"Aspergillus fumigatus; Aspergillus fumigatus, †2-fold synergy obtained",2/3^†
same,Conc. Cpd 4 for 4-fold decrease,C. tropicalis; 4-fold reduction of FLU MIC,0.5 µg/mL
same,VOR/Cpd 4 FIC interpretation,C. tropicalis; Cpd 4 with voriconazole,(S) (S = synergy)
same,Synergy with Cpd 4 (strains showing synergy/total strains tested) Itraconazole,Paecilomyces lilacinus; [4],2/3*
same,Synergy with Cpd 4 (strains showing synergy/total strains tested) Voriconazole,Paecilomyces lilacinus; [4],2/3*
same,MIC,"Paecilomyces lilacinus; Purpureocillium lilacinum, Paecilomyces lilacinus clinical isolates, read-out: Cpd 4 MIC",4 µg/mL
same,FLU/Cpd 4 FIC interpretation,"C. krusei; Cpd 4 with fluconazole, C. krusei clinical isolates and QC 6258",(S) (S = synergy)
same,VOR/Cpd 4 FIC,"C. krusei; Cpd 4 with voriconazole, C. krusei clinical isolates and QC 6258",0.6 and 0.5 and 0.3
same,minimum Compound 4 concentration at which Compound 4 alone inhibited growth (number in brackets),C. krusei; FLU checkerboard,0.5 µg/mL
same,minimum Compound 4 concentration at which Compound 4 alone inhibited growth (number in brackets),C. krusei; VOR checkerboard,0.25 µg/mL and 0.5 µg/mL
same,FLU/Cpd 4 FIC,C. dubliniensis; [5],2.0
same,FLU/Cpd 4 FIC interpretation,C. dubliniensis; [5],(I) (I = indifference)
same,VOR/Cpd 4 FIC,C. dubliniensis; [6],2.0
same,VOR/Cpd 4 FIC interpretation,C. dubliniensis; [6],(I) (I = indifference)
same,minimum Compound 4 concentration at which Compound 4 alone inhibited growth (number in brackets),"C. dubliniensis; FLU checkerboard, C. dubliniensis clinical isolates",0.03 µg/mL
same,minimum Compound 4 concentration at which Compound 4 alone inhibited growth (number in brackets),"C. dubliniensis; VOR checkerboard, C. dubliniensis clinical isolates",0.12 µg/mL
same,activity of Compound 4 alone,C. dubliniensis; all 4 clinical isolates of C. dubliniensis,potent activity alone
same,MIC,"C. parapsilosis (22019); Lodderomyces parapsilosis, read-out: Cpd 4 MIC",0.39 to 0.78 µg/mL
same,Cpd 4 Conc for 4-fold synergy,C. parapsilosis (22019); with ketoconazole,0.2 µg/mL
same,Cpd 4 Conc for 4-fold synergy,C. parapsilosis (22019); with voriconazole,0.049 µg/mL
same,MIC,"C. krusei (14243); Pichia kudriavzevii, read-out: Cpd 4 MIC",3.1 to 6.3 µg/mL
same,Cpd 4 Conc for 4-fold synergy,C. krusei (14243); with itraconazole,0.39 µg/mL
same,Cpd 4 Conc for 4-fold synergy,C. krusei (14243); with ketoconazole,0.39 µg/mL
same,Cpd 4 Conc for 4-fold synergy,C. krusei (14243); with voriconazole,0.39 µg/mL
same,MIC,"Rhizopus arrhizus; Rhizopus arrhizus clinical isolates, read-out: Cpd 4 MIC",> 8 µg/mL
same,Synergy with Cpd 4 (strains showing synergy/total strains tested) Itraconazole,Rhizopus arrhizus; [7],2/3*
same,Synergy with Cpd 4 (strains showing synergy/total strains tested) Voriconazole,Rhizopus arrhizus; [7],2/3*
same,MIC,"A. fumigatus ATCC 1022; Aspergillus fumigatus, ATCC1022, A. fumigatus (1022), read-out: Cpd 4 MIC",2 to 5 µg/mL
same,Cpd 4 Conc for 4-fold synergy,"A. fumigatus ATCC 1022; with itraconazole, A. fumigatus (1022)",5 µg/mL
same,Cpd 4 Conc for 4-fold synergy,"A. fumigatus ATCC 1022; with ketoconazole, A. fumigatus (1022)",2.5 µg/mL
same,conc. for 4-fold synergy,"A. fumigatus ATCC 1022; with ketoconazole, A. fumigatus ATCC 1022, 48 hours",0.5 µg/mL
same,Cpd 4 Conc for 4-fold synergy,"A. fumigatus ATCC 1022; with voriconazole, A. fumigatus (1022)",5 µg/mL
same,"effect on the activity of ketoconazole (fungal load, CFU per pair of kidneys)",C. albicans,"enhancing (i.e., synergistic) effect"
same,Synergy with Cpd 4 (strains showing synergy/total strains tested) Voriconazole,Coccidioides immitis,0/3**
same,Synergy with Cpd 4 (strains showing synergy/total strains tested) Itraconazole,Coccidioides immitis; Coccidioides immitis,2/3
same,MIC,"Coccidioides immitis; Coccidioides immitis, read-out: Cpd 4 MIC",0.25 µg/mL
same,Synergy with Cpd 4 (strains showing synergy/total strains tested) Itraconazole,Mucor Sp.; Mucor Sp.,1/3
same,Synergy with Cpd 4 (strains showing synergy/total strains tested) Voriconazole,Mucor Sp.; Mucor Sp.,0/3
same,MIC,"Mucor Sp.; Mucor Sp. clinical isolates, read-out: Cpd 4 MIC",8 µg/mL
same,PAFE,"C. glabrata; Compound 4 combined with voriconazole, FIGS. 5 and 6C",~1 h
same,PAFE,"C. glabrata; itraconazole combined with Compound 4, FIG. 7",0.5 h
same,in vitro antagonism of Compound 4-azole combination,Candida spp.; Candida spp. clinical isolates,none of the isolates tested
same,isolates with synergy / isolates tested,Candida spp.; Compound 4 with FLU,34/45
same,isolates with synergy / isolates tested,Candida spp.; Compound 4 with VOR,37/45
same,MTT HMEC,HMEC,13 µM
